In patent US20130095503A1, “SERUM SPLA2-IIA AS DIAGNOSIS MARKER FOR PROSTATE AND LUNG CANCER” (UNIVERSITY OF CINCINNATI, priority 2010, published 2013):

Experiments:
Format in all cases: cell-based, human
[1] = system: sPLA2-IIA secretion by LNCaP-AI cells; assay: ELISA of sPLA2-IIA secreted into culture medium of LNCaP-AI cells; settings: inhibitor ~20 μM (CI-1033 ~8 μM), about 24 hours, FIG. 7
Procedure: Finally, LNCaP-AI cells were starved in 1% stripped medium for about 24 hours. The cells were then treated with Erlotinib (˜20 μM), Gefitinib (˜20 μM), Lapatinib (˜20 μM), CI-1033 (˜8 μM), LY294002 (˜20 μM), and Bortezomib (˜20 μM) for about 24 hours. Cell culture medium was collected from each sample and subjected to ELISA for sPLA2-IIA. The condition medium samples were diluted 10 times for ELISA. The average of duplicate samples was converted to nanogram per milliliter against standard curve. The data represent one of five repeated experiments.

sPLA2-IIA gene promoter = assay: sPLA2-IIA(-800)-Luc reporter (luciferase) assay in LNCaP-AI cells; settings: about 24 hours, FIG. 1; for effect on EGF-stimulated promoter activity of sPLA2-IIA gene: EGF ~100 ng/mL with inhibitor ~20 μM (CI-1033 ~8 μM)
Procedure: (§1) The role of sPLA2-IIA gene regulation in prostate cancer cells via the HER/HER2-PI3K-Akt-NF-κB pathway was investigated. A reporter assay was performed by transiently transfecting sPLA2-IIA(-800)-Luc (˜0.25 μg/well) reporter in LNCaP-AI cells (˜10^5 cells/well in 12-well plate). The cells were then treated with epidermal growth factor (hereinafter “EGF”) (˜100 ng/mL) without or with EGFR inhibitors Erlotinib (˜20 μM) and Gefitinib (˜20 μM), EGFR/HER2 dual inhibitors Lapatinib (˜20 μM) and CI-1033 (˜8 μM), phosphoinositide 3-kinase (hereinafter “PI3K”) inhibitor LY294002 (˜20 μM), and NF-κB inhibitor Bortezomib (˜20 μM) for about 24 hours. A luciferase assay was performed according to a standard protocol with Renilla luciferase as an internal control. Another reporter assay was performed wherein LNCaP-AI cells were starved in 1% stripped medium for about 24 hours. The cells were the treated with Erlotinib (˜20 μM), Gefitinib (˜20 μM), Lapatinib (˜20 μM), CI-1033 (˜8 μM), LY294002 (˜20 μM), Bortezomib (˜20 μM), and/or Heregulin-α (˜50 ng/mL) without or with EGF (˜100 ng/mL) for about 24 hours.

[2] = system: sPLA2-IIA protein expression in LNCaP-AI cells; assay: Western blot of sPLA2-IIA protein expression in LNCaP-AI cells; settings: about 24 hours; for effect on sPLA2-IIA protein expression: basal states and EGF-induced expression, inhibitor ~20 μM (CI-1033 ~8 μM), FIGS. 2-4
Procedure: as §1
Cell extracts were then prepared and subjected to western blot analysis for sPLA2-IIA, P-Akt, Akt, and β-actin. Briefly, aliquots of samples with the same amount of protein, determined using the Bradford assay (BioRad, Hercules, Calif.), were mixed with loading buffer (final concentrations of 62.5 mM Tris-HCl, pH 6.8, 2.3% sodium dodecyl sulfate, 100 mM dithiothreitol, and 0.005% bromophenol blue), boiled, fractionated in a sodium dodecyl sulfate-polyacrylamide gel electrophoresis, and transferred onto a 0.45-μm nitrocellulose membrane (BioRad). The filters were blocked with 2% fat-free milk in PBS, and probed with primary antibody in phosphate buffered saline containing 0.1% Tween 20 (i.e., PBST) and 1% fat-free milk. The membranes were then washed four times in PBST and incubated with horseradish peroxidase-conjugated secondary antibody (BioRad) in PBST containing 1% fat-free milk. After washing four times in PBST, the membranes were visualized using the ECL Western Blotting Detection System (Amersham Co, Arlington Height, Ill.).

[3] = system: sPLA2-IIA expression in LAPC-4 and DU145 cells; assay: Western blot of sPLA2-IIA expression in LAPC-4 and DU145 cells; settings: Lapatinib ~20 μM, via blocking PI3K-Akt signaling, FIG. 5
Procedure: A reporter assay was performed by transiently transfecting sPLA2-IIA(-800)-Luc (˜0.25 μg/well) reporter in LNCaP-AI cells (˜10^5 cells/well in 12-well plate). The cells were then treated with epidermal growth factor (hereinafter “EGF”) (˜100 ng/mL) without or with EGFR inhibitors Erlotinib (˜20 μM) and Gefitinib (˜20 μM), EGFR/HER2 dual inhibitors Lapatinib (˜20 μM) and CI-1033 (˜8 μM), phosphoinositide 3-kinase (hereinafter “PI3K”) inhibitor LY294002 (˜20 μM), and NF-κB inhibitor Bortezomib (˜20 μM) for about 24 hours. A luciferase assay was performed according to a standard protocol with Renilla luciferase as an internal control. Another reporter assay was performed wherein LNCaP-AI cells were starved in 1% stripped medium for about 24 hours. […] Briefly, aliquots of samples with the same amount of protein, determined using the Bradford assay (BioRad, Hercules, Calif.), were mixed with loading buffer (final concentrations of 62.5 mM Tris-HCl, pH 6.8, 2.3% sodium dodecyl sulfate, 100 mM dithiothreitol, and 0.005% bromophenol blue), boiled, fractionated in a sodium dodecyl sulfate-polyacrylamide gel electrophoresis, and transferred onto a 0.45-μm nitrocellulose membrane (BioRad). […]

| Molecule | effect on sPLA2-IIA secretion (ELISA of culture medium) [1] | effect on EGF-stimulated promoter activity of sPLA2-IIA gene (sPLA2-IIA gene promoter) | effect on sPLA2-IIA protein expression [2] | effect on sPLA2-IIA expression in LAPC-4 and DU145 cells [3] | promoter activity of sPLA2-IIA gene (sPLA2-IIA gene promoter; EGF ~100 ng/mL) | sPLA2-IIA expression (western blot), stimulation by EGF ([2]; EGF ~100 ng/mL, FIGS. 2 and 3) |
| --- | --- | --- | --- | --- | --- | --- |
| C=CC(=O)Nc1cc2c(Nc3ccc(F)c(Cl)c3)ncnc2cc1OCCCN1CCOCC1 [CI-1033] | moderate effect | blocked | moderate impact |  |  |  |
| COc1cc2ncnc(Nc3ccc(F)c(Cl)c3)c2cc1OCCCN1CCOCC1 [Gefitinib] | moderate effect | blocked | moderate impact |  |  |  |
| CS(=O)(=O)CCNCc1ccc(-c2ccc3ncnc(Nc4ccc(OCc5cccc(F)c5)c(Cl)c4)c3c2)o1 [Lapatinib] | significantly inhibited | blocked | dramatically downregulated | inhibited |  |  |
| EGF: epidermal growth factor |  |  |  |  | significantly stimulated | stimulated sPLA2-IIA expression |
| C#Cc1cccc(Nc2ncnc3cc(OCCOC)c(OCCOC)cc23)c1 [Erlotinib] | moderate effect | blocked | moderate impact |  |  |  |
| CC(C)C[C@H](NC(=O)[C@H](Cc1ccccc1)NC(=O)c1cnccn1)B(O)O [Bortezomib] | significantly inhibited | blocked | dramatically downregulated |  |  |  |
